Laboratory results from patent publication EP0429304A2, “Pyridone-carboxylic acid derivatives and their use as veterinary medicines” (SHIONOGI SEIYAKU KABUSHIKI KAISHA trading under the name of …, priority 1989, dated 1991).
Like-named read-outs stand apart in the source and are kept apart here.

Key:
[1] = system: Mycoplasma synoviae (MS) 1853; assay: In vitro sensitivity test (liquid dilution method); type: cell-based; details: 37°C, 7 days
Outline: (§1)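 Mycoplasma synoviae strains tested by liquid dilution in Frey medium with 12% pig serum and 0.01% βNAD, 37 °C for 7 days. P. piscicida grown on heart infusion agar with 1.5% NaCl, 25 °C for 40–48 h.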

[2] = system: Mycoplasma hyopneumoniae (Mh) ST-11; assay: In vitro sensitivity test (liquid dilution method); type: cell-based; details: 37°C, 7 days
[3] = system: Mycoplasma synoviae (MS) F10-2as; assay: In vitro sensitivity test (liquid dilution method); type: cell-based; details: 37°C, 7 days
Outline: as §1

[4] = system: Mycoplasma gallisepticum (MG) S6; assay: In vitro sensitivity test (liquid dilution method); type: cell-based; details: 37°C, 7 days
[5] = system: Mycoplasma gallisepticum (MG) T-7-T, TS-resistant strain isolated from the field; assay: In vitro sensitivity test (liquid dilution method); type: cell-based; details: 37°C, 7 days
[6] = system: TS-resistant MG; assay: Experimental MG infection to chicken, through injection; type: in vivo; details: 5 fowl tested, 10-days chicken, 3.1 x 10³ CFU/fowl
[7] = system: H.pp (otherwise called Actinobacillus pleuropneumoniae) strain M-1; assay: Experimental H.pp infection to pig, through injection; type: in vivo; details: injection to thigh muscle one time, dissection 6 days after inoculation
Description: (§2) In these experiments, the compound (I) was applied to the designated animals by (1) oral administration, (2) incorporation into baits and (3) intramuscular injection, the details of which are explained below.
(3) Preparation of the MG infected fowls was performed in the same manner as in (1) above. Infection of H.pp (otherwise called Actinobacillus pleuropneumoniae) to cause pleuropneumonia in pig was performed by inoculating 5 ml of a fresh cultured strain (i.e. M-1) of H.pp to each nasopharyngeal of some 45 days pigs, each weighing 4 to 9 kg (4 to 5 pigs/group), followed by injection of the test compounds to each thigh muscle at a designated volume one time. Pigs were dissected 6 days after the inoculation. The evaluation of the antimicrobial activity was made by observation of the pneumonia symptomes in air sacs, number of dead body and degree of nodosity in air sacks on dissection.

[8] = system: H.pg strain (i.e. 221); assay: Experimental H.pg infection to chicken, through bait; type: in vivo; details: 28-days chicken infected with 4 x 10⁸ CFU/fowl, dissection, 10th day after inoculation
Source text: as §2

[9] = system: Hemophilus pleuropneumonia (H.pp) M-1; assay: In vitro sensitivity test (agar dilution method); type: cell-based; details: 37°C, 20 hours, 10 % CO₂
[10] = system: Hemophilus paragallinarum (H.pg) S-1; assay: In vitro sensitivity test (agar dilution method); type: cell-based; details: agar dilution, 37°C, 20 hours, 10 % CO₂
[11] = system: Escherichia coli (E.coli) E-17, chicken-origin strain isolated from the field; assay: In vitro sensitivity test (agar dilution method); type: cell-based; details: 37°C, 20 to 24 hours
Outline: (§3)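 Read-out is visual growth after incubation. Conditions were 37°C for 7 days in Frey medium (12 % pig-serum, 0.01 % βNAD; liquid dilution) for MS, and 37°C for 20 to 24 hours on Mueller Hinton agar for S.au. P.pis used 25°C, 40 to 48 hours, on 1.5 % NaCl heart infusion agar.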

[12] = system: Escherichia coli (E.coli) JC-2; assay: In vitro sensitivity test (agar dilution method); type: cell-based; details: 37°C, 20 to 24 hours
[13] = system: Staphylococcus aureus (S.au) 209P; assay: In vitro sensitivity test (agar dilution method); type: cell-based; details: 37°C, 20 to 24 hours
Outline: as §3

[14] = system: Bordetella bronchiseptica (B.br) ABU-1; assay: In vitro sensitivity test (agar dilution method); type: cell-based; details: 37°C, 20 to 24 hours
[15] = system: Hemophilus paragallinarum (H.pg) 221; assay: In vitro sensitivity test (agar dilution method); type: cell-based; details: agar dilution, 37°C, 20 hours, 10 % CO₂
[16] = system: TS-resistant MG; assay: Experimental MG infection to chicken, through bait; type: in vivo; details: 9-days chicken; for Number of fowl having air sack lesions: 1.8 x 10³ CFU/fowl; for Number of infected fowl/Number of fowl tested: 6.6 x 10³ CFU/fowl, dissection 6th day after inoculation
[17] = system: TS-resistant strain of MG; type: in vivo, chicken; details: for Number of infected fowl/Number of fowl tested: 3.5 x 10³ CFU/fowl
[18] = system: Pasteurella piscicida (P.pis) No. 2; assay: In vitro sensitivity test; type: cell-based; details: 25°C, 40 to 48 hours
Outline: as §1

[19] = Acute toxicity (LD50); details: in vivo, read-out: LD₅₀
Source text: The compounds (I) according to the invention show a higher antimicrobial activity than the control or commercially available antimicrobial agents with a smaller dosage. […]

[20] = system: Salmonella typhimurium (S.typhi) 13311; assay: In vitro sensitivity test (agar dilution method); type: cell-based; details: 37°C, 20 to 24 hours

## CCN1CCN(c2cc3c(cc2F)c(=O)c(C(=O)O)cn3C2CC2)CC1 [ERFX, Enrofuroxasin®, reference compound]
[1]
  In vitro Sensitivity Test MS 1853: 0.1 µg/mL
[2]
  In vitro Sensitivity Test Mh ST-11: 0.05 µg/mL
[3]
  In vitro Sensitivity Test MS F10-2as: 3.13 µg/ml
[4]
  In vitro Sensitivity Test MG S6: 0.1 µg/mL
[5]
  In vitro Sensitivity Test MG T-7-T: 0.1 µg/mL
[6]; Dose 1.56 mg/kg
  Number of fowl having air sack lesions: 3
[6]; Dose 3.13 mg/kg
  Number of fowl having air sack lesions: 2
[7]; Dose 5 mg/kg
  Number of pig died or developed dyspnea/Number of pig tested: 0/4
  Number of pig having nodi/Number of pig tested: 0/4
[7]; Dose 10 mg/kg
  Number of pig died or developed dyspnea/Number of pig tested: 0/4
  Number of pig having nodi/Number of pig tested: 0/4
[8]
  Effective concentration to prevent pituita: 7.8 ppm/day
[9]
  In vitro Sensitivity Test H.pp M-1: 0.2 µg/mL
[10]
  In vitro Sensitivity Test H.pg S-1: 0.2 µg/mL
[11]
  In vitro Sensitivity Test E.coli E-17: 0.1 µg/ml
[12]
  In vitro Sensitivity Test E.coli JC-2: 0.1 µg/mL
[13]
  In vitro Sensitivity Test S.au 209P: 0.1 µg/mL
[14]
  In vitro Sensitivity Test B.br ABU-1: 0.1 µg/mL
[15]
  In vitro Sensitivity Test H.pg 221: 0.1 µg/mL
[16]; bait 15.6 ppm/Day
  Number of fowl having air sack lesions: 1
[16]; bait 31.3 ppm/Day
  Number of fowl having air sack lesions: 0
  Number of infected fowl/Number of fowl tested: 1/7
[16]; bait 62.5 ppm/Day
  Number of fowl having air sack lesions: 0
  Number of infected fowl/Number of fowl tested: 0/7
[16]; bait 125 ppm/Day
  Number of infected fowl/Number of fowl tested: 0/7
[17]; oral 1.56 mg/kg, 9-days chicken
  Number of infected fowl/Number of fowl tested: 2/5
[17]; oral 3.13 mg/kg, 9-days chicken, 2.2 x 10³ CFU/fowl
  Number of fowl having air sack lesions: 2
[17]; oral 3.13 mg/kg, 9-days chicken
  Number of infected fowl/Number of fowl tested: 0/5
[17]; oral 6.25 mg/kg, 9-days chicken, 1.7 x 10³ CFU/fowl
  Number of fowl having air sack lesions: 1
[17]; oral 6.25 mg/kg, 9-days chicken, 2.2 x 10³ CFU/fowl
  Number of fowl having air sack lesions: 0
[17]; oral 6.25 mg/kg, 9-days chicken
  Number of infected fowl/Number of fowl tested: 0/5
[17]; oral 6.25 mg/kg, 10-days chicken, 1.2 x 10³ CFU/fowl
  Number of fowl having air sack lesions: 2
[17]; oral 6.25 mg/kg, 10-days chicken, 3.0 x 10³ CFU/fowl
  Number of fowl having air sack lesions: 2
[17]; oral 12.5 mg/kg, 9-days chicken, 1.7 x 10³ CFU/fowl
  Number of fowl having air sack lesions: 0
[17]; oral 12.5 mg/kg, 9-days chicken, 2.2 x 10³ CFU/fowl
  Number of fowl having air sack lesions: 0
[17]; oral 12.5 mg/kg, 10-days chicken, 1.2 x 10³ CFU/fowl
  Number of fowl having air sack lesions: 0
[17]; oral 12.5 mg/kg, 10-days chicken, 3.0 x 10³ CFU/fowl
  Number of fowl having air sack lesions: 0
[17]; oral 25.0 mg/kg, 9-days chicken, 1.7 x 10³ CFU/fowl
  Number of fowl having air sack lesions: 0
[17]; oral 25.0 mg/kg, 10-days chicken, 1.2 x 10³ CFU/fowl
  Number of fowl having air sack lesions: 0
[17]; oral 25.0 mg/kg, 10-days chicken, 3.0 x 10³ CFU/fowl
  Number of fowl having air sack lesions: 0
[17]; oral administration, MG-infected chicken
  complete inihibition of the lesions in air sac at a concentration of: 12.5 mg/kg

## CNCC12CCCC1CN(c1c(F)cc3c(=O)c(C(=O)O)cn(C4CC4)c3c1F)C2.Cl (stereo not shown) [I-5]
[3]
  In vitro Sensitivity Test MS F10-2as: 0.2 µg/ml
[7]; Dose 10 mg/kg
  Number of pig died or developed dyspnea/Number of pig tested: 0/4
  Number of pig having nodi/Number of pig tested: 0/4
[8]
  Effective concentration to prevent pituita: 1.56 ppm/day
[18]
  In vitro Sensitivity Test P.pis No. 2: 1.56 µg/mL
[19]; ip, Mouse (B6C3F₁, male), i.p.
  LD50: 200 mg/kg
[19]; po, Chicken ( -days), p.o.
  LD50: 500 mg/kg
[19]; po, Mouse (B6C3F₁, male), p.o.
  LD50: 2000 mg/kg
[20]
  In vitro Sensitivity Test S.typhi 13311: 0.2 µg/mL
[17]; in vivo, po
  antimicrobial activity compared with ERFX: two times more effective than ERFX
  complete inihibition of the lesions in air sac at a concentration of: about 3.13 mg/kg
[17]; in vivo, po, 1.56 mg/kg
  Infectious index Left air sack +: 0
  Infectious index Left air sack ++: 0
  Infectious index Left air sack +++: 0
  Infectious index Left air sack -: 4
  Infectious index Right air sack +: 0
  Infectious index Right air sack ++: 1
  Infectious index Right air sack +++: 1
  Infectious index Right air sack -: 2
  Number of fowl having air sack lesions: 2
[17]; in vivo, po, 3.13 mg/kg
  Infectious index Left air sack +: 0
  Infectious index Left air sack ++: 0
  Infectious index Left air sack +++: 0
  Infectious index Left air sack -: 5
  Infectious index Right air sack +: 0
  Infectious index Right air sack ++: 0
  Infectious index Right air sack +++: 0
  Infectious index Right air sack -: 5
  Number of fowl having air sack lesions: 0
[17]; in vivo, po, 6.25 mg/kg
  Infectious index Left air sack +: 0
  Infectious index Left air sack ++: 0
  Infectious index Left air sack +++: 0
  Infectious index Left air sack -: 5
  Infectious index Right air sack +: 0
  Infectious index Right air sack ++: 0
  Infectious index Right air sack +++: 0
  Infectious index Right air sack -: 5
  Number of fowl having air sack lesions: 0
[17]; in vivo, po, 25 mg/kg
  Infectious index Left air sack +: 0
  Infectious index Left air sack ++: 0
  Infectious index Left air sack +++: 0
  Infectious index Left air sack -: 5
  Infectious index Right air sack +: 0
  Infectious index Right air sack ++: 0
  Infectious index Right air sack +++: 0
  Infectious index Right air sack -: 5
  Number of fowl having air sack lesions: 0
